According to patent US20260069588A1, “VEPDEGESTRANT FOR USE IN TREATING CANCER” (Arvinas Operation, Inc., priority 2022, published 2026):

Legend:
P-gp = P-gp (Homo sapiens, UniProt P08183); assay: Efflux transporter substrate assessment (inside-out vesicular assay), P-gp; assay type: in vitro ADME
Ikaros = Ikaros (Homo sapiens, UniProt Q13422); assay: Cereblon neomorphic substrate degradation, Ikaros; assay type: cell-based; conditions: in vitro
Excerpt: These drugs bind to cereblon and promote the degradation of novel (neomorphic) substrates.

[1] = 7-day oral dose range finding toxicity study in dogs; assay type: in vivo; conditions: dog, up to 120 mg/kg/day, 7 days
AR = AR (Homo sapiens, UniProt P10275); assay: Secondary pharmacodynamics binding, AR; conditions: in vitro
AR, sequence (P10275 whole entry): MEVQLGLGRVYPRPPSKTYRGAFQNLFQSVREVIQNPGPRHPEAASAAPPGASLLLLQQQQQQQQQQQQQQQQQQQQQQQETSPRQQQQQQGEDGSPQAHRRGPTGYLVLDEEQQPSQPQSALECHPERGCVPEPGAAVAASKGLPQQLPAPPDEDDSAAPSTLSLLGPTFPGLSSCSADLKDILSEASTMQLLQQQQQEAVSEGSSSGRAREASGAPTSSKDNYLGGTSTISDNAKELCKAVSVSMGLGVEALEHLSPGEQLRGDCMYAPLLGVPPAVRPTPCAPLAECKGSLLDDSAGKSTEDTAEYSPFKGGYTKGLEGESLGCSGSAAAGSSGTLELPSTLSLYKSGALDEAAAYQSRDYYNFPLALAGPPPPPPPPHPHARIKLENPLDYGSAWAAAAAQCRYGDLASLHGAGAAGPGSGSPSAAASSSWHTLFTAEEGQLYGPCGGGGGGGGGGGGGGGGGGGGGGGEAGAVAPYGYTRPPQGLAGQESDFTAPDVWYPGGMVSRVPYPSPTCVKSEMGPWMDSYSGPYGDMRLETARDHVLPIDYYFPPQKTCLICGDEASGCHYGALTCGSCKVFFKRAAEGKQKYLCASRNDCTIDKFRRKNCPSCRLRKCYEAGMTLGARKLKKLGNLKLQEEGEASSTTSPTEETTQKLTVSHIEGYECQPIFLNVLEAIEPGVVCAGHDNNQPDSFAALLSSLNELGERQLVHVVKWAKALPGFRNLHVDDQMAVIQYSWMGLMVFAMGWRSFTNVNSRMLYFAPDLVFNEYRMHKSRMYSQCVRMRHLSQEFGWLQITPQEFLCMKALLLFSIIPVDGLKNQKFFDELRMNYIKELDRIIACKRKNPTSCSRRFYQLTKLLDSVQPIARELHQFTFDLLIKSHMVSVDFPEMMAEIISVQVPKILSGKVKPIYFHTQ

[2] = 28-day GLP oral toxicity study in rats; conditions: both sexes, in vivo; rat, 28 days oral
Protocol: There were no mortalities and no Compound A-related clinical observations or changes in BWs or food consumption, and no FOB observations or ophthalmology findings. Minor clinical pathology changes at the 100 mg/kg/day dose level (minimally higher lymphocyte count in males, minimally lower calcium concentration in both sexes, minimally lower albumin concentration in males, and mildly lower cholesterol concentration in females) were potentially Compound A-related but were reversible and were not considered adverse.
Compound A-related microscopic findings included increased ovarian cysts in females administered ≥3 mg/kg/day and atrophy of the uterus and of the cervical and vaginal mucosal epithelium in females administered ≥10 mg/kg/day. […] Similar findings had been noted in a few animals in the 7-day study.

[3] = GLP cardiovascular telemetry study in beagle dogs with TK phase; assay type: in vivo, dog
Protocol: A lead-in single-dose TK and tolerability study conducted prior to the telemetry study indicated approximately dose-proportional increase in exposure between 200 and 400 mg/kg in the dog.

[4] = FIH Study Parts A and B combined: adverse events; assay type: in vivo, human
Excerpt: Preliminary safety data from Part B (monotherapy dose expansion) is consistent with what has been observed in Part A (monotherapy dose escalation).

[5] = both sexes, beagle, plasma, dog n=8, 400 mg/kg single oral, TK phase

P-gp, sequence (P08183 whole entry): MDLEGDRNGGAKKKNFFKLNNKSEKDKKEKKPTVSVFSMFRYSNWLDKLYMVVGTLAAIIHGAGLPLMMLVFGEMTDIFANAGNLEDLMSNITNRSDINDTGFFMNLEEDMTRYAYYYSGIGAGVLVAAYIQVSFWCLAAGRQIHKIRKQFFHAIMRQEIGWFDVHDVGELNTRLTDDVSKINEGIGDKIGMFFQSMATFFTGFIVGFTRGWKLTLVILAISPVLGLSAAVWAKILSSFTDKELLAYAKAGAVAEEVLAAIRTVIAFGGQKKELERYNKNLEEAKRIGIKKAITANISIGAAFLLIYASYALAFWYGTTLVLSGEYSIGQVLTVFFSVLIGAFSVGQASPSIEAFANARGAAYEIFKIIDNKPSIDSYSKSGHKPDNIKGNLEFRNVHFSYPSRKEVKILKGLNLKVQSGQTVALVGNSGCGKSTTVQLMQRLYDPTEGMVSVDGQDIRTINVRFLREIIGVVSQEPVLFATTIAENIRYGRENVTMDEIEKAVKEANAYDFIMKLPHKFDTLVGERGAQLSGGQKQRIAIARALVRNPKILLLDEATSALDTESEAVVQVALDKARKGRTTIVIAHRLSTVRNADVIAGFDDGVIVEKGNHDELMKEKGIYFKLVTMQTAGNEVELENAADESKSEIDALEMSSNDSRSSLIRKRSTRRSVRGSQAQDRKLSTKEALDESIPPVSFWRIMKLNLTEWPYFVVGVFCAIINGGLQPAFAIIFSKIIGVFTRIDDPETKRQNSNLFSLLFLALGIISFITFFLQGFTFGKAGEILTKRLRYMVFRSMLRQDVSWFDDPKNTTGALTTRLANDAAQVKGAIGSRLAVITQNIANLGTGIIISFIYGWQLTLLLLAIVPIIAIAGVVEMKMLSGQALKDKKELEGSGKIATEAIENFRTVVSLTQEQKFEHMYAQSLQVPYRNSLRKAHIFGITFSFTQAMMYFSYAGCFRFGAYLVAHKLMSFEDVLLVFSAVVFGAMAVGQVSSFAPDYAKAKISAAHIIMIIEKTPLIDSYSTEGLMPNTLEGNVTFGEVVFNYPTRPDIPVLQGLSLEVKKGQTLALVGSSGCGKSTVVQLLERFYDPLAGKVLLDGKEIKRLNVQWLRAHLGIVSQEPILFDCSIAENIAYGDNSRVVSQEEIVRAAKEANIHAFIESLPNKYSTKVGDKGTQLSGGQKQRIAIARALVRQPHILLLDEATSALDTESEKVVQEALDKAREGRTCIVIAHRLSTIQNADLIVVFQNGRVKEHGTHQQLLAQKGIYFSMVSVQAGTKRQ
Ikaros, sequence (Q96SW2 whole entry partner, species assumed): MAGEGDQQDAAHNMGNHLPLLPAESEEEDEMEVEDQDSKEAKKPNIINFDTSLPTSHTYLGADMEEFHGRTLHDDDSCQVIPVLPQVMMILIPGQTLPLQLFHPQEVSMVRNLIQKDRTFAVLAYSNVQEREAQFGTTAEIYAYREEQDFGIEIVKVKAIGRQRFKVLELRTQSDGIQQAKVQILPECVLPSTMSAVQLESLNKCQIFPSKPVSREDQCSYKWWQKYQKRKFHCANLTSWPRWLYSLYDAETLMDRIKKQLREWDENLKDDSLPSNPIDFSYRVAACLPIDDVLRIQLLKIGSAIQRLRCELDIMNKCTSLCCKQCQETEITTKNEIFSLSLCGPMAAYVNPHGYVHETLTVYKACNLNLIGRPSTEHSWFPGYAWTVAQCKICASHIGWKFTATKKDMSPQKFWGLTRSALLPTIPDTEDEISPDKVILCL
Ikaros, sequence (Q16531 whole entry partner, species assumed): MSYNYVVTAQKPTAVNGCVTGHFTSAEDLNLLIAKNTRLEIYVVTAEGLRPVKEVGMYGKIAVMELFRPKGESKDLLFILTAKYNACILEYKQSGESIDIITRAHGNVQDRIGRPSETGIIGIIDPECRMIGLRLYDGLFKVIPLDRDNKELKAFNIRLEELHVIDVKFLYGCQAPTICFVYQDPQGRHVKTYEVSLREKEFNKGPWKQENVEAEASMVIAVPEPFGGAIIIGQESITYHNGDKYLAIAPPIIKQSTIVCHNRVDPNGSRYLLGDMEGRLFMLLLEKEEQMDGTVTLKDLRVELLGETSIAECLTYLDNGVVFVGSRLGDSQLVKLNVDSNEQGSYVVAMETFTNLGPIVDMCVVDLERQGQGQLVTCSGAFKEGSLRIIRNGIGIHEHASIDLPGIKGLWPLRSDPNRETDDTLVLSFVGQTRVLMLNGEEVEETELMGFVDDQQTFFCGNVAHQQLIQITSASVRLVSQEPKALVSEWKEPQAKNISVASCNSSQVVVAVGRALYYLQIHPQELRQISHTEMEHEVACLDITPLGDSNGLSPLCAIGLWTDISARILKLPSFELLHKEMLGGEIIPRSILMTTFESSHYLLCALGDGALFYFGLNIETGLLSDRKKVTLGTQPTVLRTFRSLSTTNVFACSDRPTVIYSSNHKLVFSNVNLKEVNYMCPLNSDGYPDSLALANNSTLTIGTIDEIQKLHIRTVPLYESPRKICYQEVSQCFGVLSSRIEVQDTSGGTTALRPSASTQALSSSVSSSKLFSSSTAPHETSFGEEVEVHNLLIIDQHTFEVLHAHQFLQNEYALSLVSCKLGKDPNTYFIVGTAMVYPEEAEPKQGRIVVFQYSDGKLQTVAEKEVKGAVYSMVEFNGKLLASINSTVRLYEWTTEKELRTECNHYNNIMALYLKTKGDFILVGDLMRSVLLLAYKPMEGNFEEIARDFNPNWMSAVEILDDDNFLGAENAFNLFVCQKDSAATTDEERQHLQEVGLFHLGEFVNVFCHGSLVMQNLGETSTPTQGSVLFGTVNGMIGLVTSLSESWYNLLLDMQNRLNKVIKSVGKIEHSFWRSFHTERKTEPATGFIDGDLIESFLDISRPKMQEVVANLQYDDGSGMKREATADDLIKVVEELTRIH
Ikaros, sequence (Q13422 whole entry, species assumed): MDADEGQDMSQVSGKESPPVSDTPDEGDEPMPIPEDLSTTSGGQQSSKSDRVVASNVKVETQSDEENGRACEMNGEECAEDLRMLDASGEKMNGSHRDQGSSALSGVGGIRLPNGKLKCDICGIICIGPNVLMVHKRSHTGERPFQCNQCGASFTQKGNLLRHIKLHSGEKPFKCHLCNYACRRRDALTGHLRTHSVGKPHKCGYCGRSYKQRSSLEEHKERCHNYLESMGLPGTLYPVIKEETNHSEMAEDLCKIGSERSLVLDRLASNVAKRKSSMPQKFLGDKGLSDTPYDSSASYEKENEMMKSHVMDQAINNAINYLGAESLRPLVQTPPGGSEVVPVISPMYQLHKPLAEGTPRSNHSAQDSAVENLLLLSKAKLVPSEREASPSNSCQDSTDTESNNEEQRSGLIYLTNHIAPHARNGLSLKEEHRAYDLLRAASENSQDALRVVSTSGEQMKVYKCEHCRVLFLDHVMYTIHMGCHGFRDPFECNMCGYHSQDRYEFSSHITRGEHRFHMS

O=C1CC[C@H](N2Cc3cc(N4CCN(CC5CCN(c6ccc([C@@H]7c8ccc(O)cc8CC[C@@H]7c7ccccc7)cc6)CC5)CC4)ccc3C2=O)C(=O)N1 [Compound A, (S)-3-(5-(4-((1-(4-((1R,2S)-6-hydroxy-2-phenyl-1,2,3,4-tetrahydronaphthalen-1-yl)phenyl)piperidin-4-yl)methyl)piperazin-1-yl)-1-oxoisoindolin-2-yl)piperidine-2,6-dione]
substrate of P-gp (P-gp): unlikely to be a substrate
degradation of Ikaros (Ikaros): did not degrade
tolerability [1]: well tolerated
binding (AR): bound
NOAEL at 28 days [2]: 100 mg/kg/day
Cmax [3, 5]: 16000 ng/mL
Tmax [3, 5]: 5.1 h
AUC(0-t) ([3]; both sexes, beagle, plasma, dog n=8, 400 mg/kg single oral, TK phase, read-out: mean AUC0-24): 272 µg·h/mL
QT- or QTc-interval ([3]; dog, 400 mg/kg): no changes in QT- or QTc-interval
shortening of the PR interval ([3]; dog, 400 mg/kg, 1 to 3.25 hours postdose): 7 ms
cardiovascular effects ([3]; dog, single oral 90 and 200 mg/kg): No Compound A-related effects were noted
patients with TEAEs ([4]; 143 of 154, as of 6 Jun 2023): 92.9%
Any treatment-emergent AE, Any Grade ([4]; Part A + B, N=154): 143 (92.9) n (%)
Any treatment-emergent AE, Grade 3+ ([4]; Part A + B, N=154): 40 (26.0) n (%)
Any treatment-related AE, Any Grade ([4]; Part A + B, N=154): 114 (74.0) n (%)
Any treatment-related AE, Grade 3+ ([4]; Part A + B, N=154): 12 (7.8) n (%)
TEAE Anemia, Any Grade ([4]; Part A + B, N=154): 16 (10.4) n (%)
TEAE Anemia, Grade 3+ ([4]; Part A + B, N=154): 2 (1.3) n (%)
TEAE Arthralgia, Any Grade ([4]; Part A + B, N=154): 34 (22.1) n (%)
TEAE Arthralgia, Grade 3+ ([4]; Part A + B, N=154): 2 (1.3) n (%)
TEAE Aspartate aminotransferase increased, Any Grade ([4]; Part A + B, N=154): 21 (13.6) n (%)
TEAE Aspartate aminotransferase increased, Grade 3+ ([4]; Part A + B, N=154): 3 (1.9) n (%)
TEAE Back pain, Any Grade ([4]; Part A + B, N=154): 21 (13.6) n (%)
TEAE Back pain, Grade 3+ ([4]; Part A + B, N=154): 2 (1.3) n (%)
TEAE Constipation, Any Grade ([4]; Part A + B, N=154): 41 (26.6) n (%)
TEAE Constipation, Grade 3+ ([4]; Part A + B, N=154): 0 n (%)
TEAE Decreased appetite, Any Grade ([4]; Part A + B, N=154): 24 (15.6) n (%)
TEAE Decreased appetite, Grade 3+ ([4]; Part A + B, N=154): 1 (0.6) n (%)
TEAE Diarrhea, Any Grade ([4]; Part A + B, N=154): 19 (12.3) n (%)
TEAE Diarrhea, Grade 3+ ([4]; Part A + B, N=154): 0 n (%)
TEAE Fatigue, Any Grade ([4]; Part A + B, N=154): 62 (40.3) n (%)
TEAE Fatigue, Grade 3+ ([4]; Part A + B, N=154): 2 (1.3) n (%)
TEAE Headache, Any Grade ([4]; Part A + B, N=154): 25 (16.2) n (%)
TEAE Headache, Grade 3+ ([4]; Part A + B, N=154): 1 (0.6) n (%)
TEAE Hot flush, Any Grade ([4]; Part A + B, N=154): 24 (15.6) n (%)
TEAE Hot flush, Grade 3+ ([4]; Part A + B, N=154): 0 n (%)
TEAE Hyperglycemia, Any Grade ([4]; Part A + B, N=154): 16 (10.4) n (%)
TEAE Hyperglycemia, Grade 3+ ([4]; Part A + B, N=154): 0 n (%)
TEAE Nausea, Any Grade ([4]; Part A + B, N=154): 46 (29.9) n (%)
TEAE Nausea, Grade 3+ ([4]; Part A + B, N=154): 1 (0.6) n (%)
TEAE Pain in extremity, Any Grade ([4]; Part A + B, N=154): 17 (11.0) n (%)
TEAE Pain in extremity, Grade 3+ ([4]; Part A + B, N=154): 0 n (%)
TEAE Vomiting, Any Grade ([4]; Part A + B, N=154): 20 (13.0) n (%)
TEAE Vomiting, Grade 3+ ([4]; Part A + B, N=154): 0 n (%)
TRAE Arthralgia, Any Grade ([4]; Part A + B, N=154): 22 (14.3) n (%)
TRAE Arthralgia, Grade 3+ ([4]; Part A + B, N=154): 0 n (%)
TRAE Constipation, Any Grade ([4]; Part A + B, N=154): 16 (10.4) n (%)
TRAE Constipation, Grade 3+ ([4]; Part A + B, N=154): 0 n (%)
TRAE Fatigue, Any Grade ([4]; Part A + B, N=154): 48 (31.2) n (%)
TRAE Fatigue, Grade 3+ ([4]; Part A + B, N=154): 1 (0.6) n (%)
TRAE Hot flush, Any Grade ([4]; Part A + B, N=154): 20 (13.0) n (%)
TRAE Hot flush, Grade 3+ ([4]; Part A + B, N=154): 0 n (%)
TRAE Nausea, Any Grade ([4]; Part A + B, N=154): 36 (23.4) n (%)
TRAE Nausea, Grade 3+ ([4]; Part A + B, N=154): 1 (0.6) n (%)
TEAE Arthralgia ([4]; Parts A and B, N=154): 22.1%
TEAE Aspartate aminotransferase increased ([4]; Parts A and B, N=154): 13.6%
TEAE Back pain ([4]; Parts A and B, N=154): 13.6%
TEAE Constipation ([4]; Parts A and B, N=154): 26.6%
TEAE Decreased appetite ([4]; Parts A and B, N=154): 15.6%
TEAE Diarrhea ([4]; Parts A and B, N=154): 12.3%
TEAE Fatigue ([4]; Parts A and B, N=154): 40.3%
TEAE Headache ([4]; Parts A and B, N=154): 16.2%
TEAE Nausea ([4]; Parts A and B, N=154): 29.9%
TEAE Pain in extremity ([4]; Parts A and B, N=154): 11.0%
TEAE Vomiting ([4]; Parts A and B, N=154): 13.0%
TEAE anemia ([4]; Parts A and B, N=154): 10.4%
TEAE hot flush ([4]; Parts A and B, N=154): 15.6%
TEAE hyperglycaemia ([4]; Parts A and B, N=154): 10.4%
TRAE Arthralgia ([4]; Parts A and B, N=154): 14.3%
TRAE Constipation ([4]; Parts A and B, N=154): 10.4%
TRAE Fatigue ([4]; Parts A and B, N=154): 31.2%
TRAE Nausea ([4]; Parts A and B, N=154): 23.4%
TRAE hot flush ([4]; Parts A and B, N=154): 13.0%
